Assay results reported in patent publication US20250288568A1, “NEW CRYSTAL FORM OF A PDE4 INHIBITOR” (CHIESI FARMACEUTICI S.P.A., priority 2022, published 2025).
Converted amounts (≈) assume the structure as drawn.

What was measured:
[1] = Solubility in Simulated Lung Fluid (SLF), saturation shake-flask method; format: physicochemical; conditions: for solubility at 0.5 h / solubility at 1 h / solubility at 3 h: simulated lung fluid (SLF), aqueous with cosolvent or surfactant or cyclodextrin, thermodynamic from solid, SLF with 0.02% v/v Tween 80, pH 6.5, 37° C.
Experimental: A study of solubility in SLF for the characterization of the crystal Form 2 and crystal Form A of the compound of formula (I), was performed. The use of SLF, that mimics the physiologically lung fluid, can give a good understanding of the dissolution mechanism and possible in vivo behavior of a product, enhancing the predictive capability of the dissolution testing in terms of bioavailability and therapeutic effectiveness.
The experimental method used is based on saturation shake-flask method. The samples were prepared by adding, respectively, an excess of the crystal Form 2 of the compound of formula (I) and an excess of the crystal Form A of the compound of formula (I), to the solubility medium SLF. The solubility concentration value is the thermodynamic equilibrium concentration, determined by assaying the solute concentration of the filtrate from a saturated solution, using an analytical method by UPLC-MS (MRM quantification; calibration: from 0.01 to 10 μg/ml; every batch have been tested in duplicate and samples have been filtered and diluted 1/10 in duplicate).
The SLF used for the tests were prepared analogously to literature (Simulated Biological Fluids with Possible Application in Dissolution Testing, Dissolution Technologies, 2011, dx.doi.org/10.14227/DT180311P15, table 11, page 2215). To mimic better the lung fluid, a surfactant, particularly Tween 80, has been added (0.02% v/v).
The solubility profile of the crystal Form 2 and the crystal Form A of the compound of formula (I) was determined in SLF adjusted with acetic acid (1M) to pH of 6.5, in order to simulate an inflammation condition in the lung. The experiment was conducted at 37° C.
The following experimental conditions were applied for the SLF dissolution profile study respectively for the crystal Form 2 and the crystal Form A of the compound of formula (I). About 2.5 mg of the crystal Form 2 or the crystal Form A of the compound of formula (I) was dispersed in 2.5 ml of SLF with stirring system. The concentration of material in solution was determined after 0.5, 1 and 3 hours. In each time interval, the vessel stirring was stopped, and 180-250 μl of each samples have been collected and filtered by RC Membrane Syringe Filters 0.45 μm and injected in UPLC apparatus.

[2] = Lung PK after intratracheal administration to Sprague-Dawley rats (PreciseInhale system); format: in vivo; conditions: rat, inhaled or intranasal, male Sprague-Dawley rats, 10 μg/lung deposited dose
Experimental: Crystal Form 2 of the compound of formula (I) was intratracheally administered to Sprague-Dawley rats using the PreciseInhale system at the dose of 10 μg/lung deposited dose. Powder aerosols was generated using 40 bar generating pressure. A total number of 24 Sprague-Dawley male rats was used for PK investigation; 8 time points for each study, n=3 rats/time point. Before administration, rats were anesthetized with sevoflurane and endotracheally intubated using appropriate steel catheters. Aerosol administration was performed connecting the catheter to the PreciseInhale system, previously set to deliver 10 μg/lung deposited dose to each animal.
Lung t1/2 is the terminal half-life, calculated by the formula ln(2)/λz, where λz is the first-order rate constant associated with the terminal (log-linear) portion of the curve. Estimated by linear regression of time vs. log concentration; i.e. the time it takes for the concentration of the drug in the lung to be reduced by 50%.
Lung MRTlast is the mean residence time from the time of dosing to the time of the last measurable concentration; i.e. the average time a molecule stays in the lung.

| Compound | solubility at 0.5 h [1] [µg/mL] | solubility at 1 h [1] [µg/mL] | solubility at 3 h [1] [µg/mL] | Higher solubility in SLF with respect to the crystal Form A ([1]; crystal Form 2 vs crystal Form A, SLF, at 0.5, 1 and 3 hours) | MRT last ([2]; mean residence time to last measurable concentration, read-out: Lung MRTlast) [h] | half-life ([2]; terminal half-life in lung, read-out: Lung t1/2 (converted)) [h] |
| --- | --- | --- | --- | --- | --- | --- |
| CS(=O)(=O)Nc1ccc(C(=O)O[C@@H](Cc2c(Cl)c[n+]([O-])cc2Cl)c2ccc(OC(F)F)c(OCC3CC3)c2)cc1OCC1CC1 [Crystal Form A, 3,5-dichloro-4-[(2S)-2-[3-(cyclopropylmethoxy)-4-(difluoromethoxy)phenyl]-2-{[3-(cyclopropylmethoxy)-4-(methanesulfonamido)benzoyl]oxy}ethyl]pyridine1-oxide, reference compound] | 0.16 (≈ 0.233 µM) | 0.18 (≈ 0.262 µM) | 0.2 (≈ 0.291 µM) | – | – | – |
| CS(=O)(=O)Nc1ccc(C(=O)O[C@@H](Cc2c(Cl)c[n+]([O-])cc2Cl)c2ccc(OC(F)F)c(OCC3CC3)c2)cc1OCC1CC1 (single isomer, unassigned) [Crystal Form 2] | 0.74 (≈ 1.08 µM) | 0.89 (≈ 1.29 µM) | 0.88 (≈ 1.28 µM) | at least 4.5 fold | 9.4 | 7.7 |
